Experimental data published in patent US20150139901A1, “Radioactive Rhodium Complexes, Preparation Methods and Uses Thereof” (Institut National de la Sante et de la Recherche Medicale …, priority 2012, published 2015).

Experiment: Stability test in human serum (15 h incubation, TLC control of supernatant)
Format: in vitro ADME
Details: controlled by TLC
Experimental: The compound of Example 4 (7.5-10.5 MBq) was prepared according to the previously described procedure. The resulting organic solution was evaporated until the final volume was about 50 μL. The complex was purified by silica gel chromatography using DCM/MeOH (99/1) as mobile phase. Activity was counted for each 500 μL aliquots and fractions of interest were concentrated under nitrogen flux. One ml of human serum was then added. The solution was gently stirred and divided into two aliquots incubated 15 h. respectively at 4° C. and 37° C. Then, serum proteins were precipitated by adding 750 μl of organic solvents mixture (ACN/DCM 100/1). Supernatant was separated by centrifugation at 4000 rpm and controlled by TLC.

(^211At)(1-benzyl-3-(4-nitrophenyl)imidazolidene)(cyclooctadiene) rhodium(+I) [Example 4]
degradation in human serum (incubated 15 h, result sentence prints 30° C. (method: 37° C.)): No degradation | degradation in human serum (incubated 15 h at 4° C.): No degradation
